Test results reported in ChEMBL document CHEMBL1201862, “PubChem BioAssay data set” (2004).
Active and inactive are the calls of the source.

Tests used:
[1] = target: Estrogen receptor beta (Homo sapiens, UniProt Q92731);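 also: recombinant ER-beta bound to coactivator SRC1 peptide in presence of estradiol agonist; inhibitors block coactivator peptide binding and lower the FRET signal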
[2] = Luminescence Cell-Based Dose Response HTS to Identify Activators of Luciferase Translation or Activity in H4 […] Cells. [Related pubchem assays: 1829 (Project Summary), 1814 (Primary HTS)]; type: functional
[3] = target: T1, Caspase-3 (Homo sapiens, UniProt P42574); type: functional;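 also: Dose-response selectivity test against caspase-3 for candidate inhibitors of sentrin-specific proteases (SENPs)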
T1 sequence (P42574 whole entry): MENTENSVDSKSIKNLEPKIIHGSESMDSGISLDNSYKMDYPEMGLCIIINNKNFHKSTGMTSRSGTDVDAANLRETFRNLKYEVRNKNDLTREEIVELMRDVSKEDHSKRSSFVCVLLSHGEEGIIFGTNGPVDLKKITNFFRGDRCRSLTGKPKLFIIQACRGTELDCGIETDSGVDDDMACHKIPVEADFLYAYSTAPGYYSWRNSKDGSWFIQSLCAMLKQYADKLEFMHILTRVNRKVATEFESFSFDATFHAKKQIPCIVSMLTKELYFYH

[4] = Luminescence Cell-Based Dose Confirmation HTS to Identify Activators of 5'UTR Stem-Loop Driven Alpha-Synuclein mRNA Translation in H4 Neuroglioblastoma Cells. [Related pubchem assays: 1829 (Project Summary), 1814 (Primary HTS)]; type: functional
[5] = target: T2, Sentrin-specific protease 8 (Homo sapiens, UniProt Q96LD8); type: functional;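 also: luminescence read-out of SENP8 inhibition, dose-response confirmation following an ultra-high-throughput screen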
T2 sequence (Q96LD8 whole entry): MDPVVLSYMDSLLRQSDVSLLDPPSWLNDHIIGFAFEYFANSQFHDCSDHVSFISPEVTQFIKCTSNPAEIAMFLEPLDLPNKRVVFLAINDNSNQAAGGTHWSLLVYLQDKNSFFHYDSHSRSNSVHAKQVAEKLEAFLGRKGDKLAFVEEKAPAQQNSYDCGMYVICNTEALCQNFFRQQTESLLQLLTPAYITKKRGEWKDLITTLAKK

[6] = target: T3, Sentrin-specific protease 6 (Homo sapiens, UniProt Q9GZR1); type: functional;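 also: Luminescence-based dose-response confirmatory assay of SENP6 inhibition, following up an ultra-high-throughput screen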
T3 sequence (Q9GZR1 whole entry): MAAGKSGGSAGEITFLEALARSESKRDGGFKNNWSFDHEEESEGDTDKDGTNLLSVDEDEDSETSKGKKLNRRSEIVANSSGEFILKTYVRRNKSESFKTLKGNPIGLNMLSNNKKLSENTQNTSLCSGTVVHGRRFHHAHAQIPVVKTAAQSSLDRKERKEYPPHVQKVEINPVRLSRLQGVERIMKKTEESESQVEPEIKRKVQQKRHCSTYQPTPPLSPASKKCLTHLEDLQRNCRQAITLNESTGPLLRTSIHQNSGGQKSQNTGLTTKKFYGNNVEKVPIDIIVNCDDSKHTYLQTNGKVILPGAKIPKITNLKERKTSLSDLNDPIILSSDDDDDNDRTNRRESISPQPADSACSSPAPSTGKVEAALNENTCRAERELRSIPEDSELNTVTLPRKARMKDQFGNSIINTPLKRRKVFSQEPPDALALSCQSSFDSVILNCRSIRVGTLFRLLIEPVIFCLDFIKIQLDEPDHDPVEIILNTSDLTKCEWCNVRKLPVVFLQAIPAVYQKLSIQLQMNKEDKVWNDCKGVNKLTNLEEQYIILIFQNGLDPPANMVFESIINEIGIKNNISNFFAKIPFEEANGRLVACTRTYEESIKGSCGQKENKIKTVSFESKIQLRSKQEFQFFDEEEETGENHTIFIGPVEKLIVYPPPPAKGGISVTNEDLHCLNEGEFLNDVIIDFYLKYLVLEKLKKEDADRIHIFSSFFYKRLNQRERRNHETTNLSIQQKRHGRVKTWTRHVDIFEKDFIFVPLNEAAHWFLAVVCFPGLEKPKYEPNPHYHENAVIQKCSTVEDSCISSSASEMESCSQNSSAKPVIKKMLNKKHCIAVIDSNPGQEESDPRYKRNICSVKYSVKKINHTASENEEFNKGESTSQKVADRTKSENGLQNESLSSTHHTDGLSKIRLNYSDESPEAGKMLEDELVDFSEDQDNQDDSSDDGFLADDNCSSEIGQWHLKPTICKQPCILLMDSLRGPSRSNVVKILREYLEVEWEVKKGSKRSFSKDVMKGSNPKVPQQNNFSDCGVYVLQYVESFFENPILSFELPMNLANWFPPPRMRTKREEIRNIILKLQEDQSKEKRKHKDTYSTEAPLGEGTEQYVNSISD

[7] = target: T4, Sentrin-specific protease 7 (Homo sapiens, UniProt Q9BQF6); type: functional;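 also: Luminescence-based dose-response confirmation of ultra-high-throughput screening hits, measuring inhibition of SENP7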
T4 sequence (Q9BQF6 whole entry): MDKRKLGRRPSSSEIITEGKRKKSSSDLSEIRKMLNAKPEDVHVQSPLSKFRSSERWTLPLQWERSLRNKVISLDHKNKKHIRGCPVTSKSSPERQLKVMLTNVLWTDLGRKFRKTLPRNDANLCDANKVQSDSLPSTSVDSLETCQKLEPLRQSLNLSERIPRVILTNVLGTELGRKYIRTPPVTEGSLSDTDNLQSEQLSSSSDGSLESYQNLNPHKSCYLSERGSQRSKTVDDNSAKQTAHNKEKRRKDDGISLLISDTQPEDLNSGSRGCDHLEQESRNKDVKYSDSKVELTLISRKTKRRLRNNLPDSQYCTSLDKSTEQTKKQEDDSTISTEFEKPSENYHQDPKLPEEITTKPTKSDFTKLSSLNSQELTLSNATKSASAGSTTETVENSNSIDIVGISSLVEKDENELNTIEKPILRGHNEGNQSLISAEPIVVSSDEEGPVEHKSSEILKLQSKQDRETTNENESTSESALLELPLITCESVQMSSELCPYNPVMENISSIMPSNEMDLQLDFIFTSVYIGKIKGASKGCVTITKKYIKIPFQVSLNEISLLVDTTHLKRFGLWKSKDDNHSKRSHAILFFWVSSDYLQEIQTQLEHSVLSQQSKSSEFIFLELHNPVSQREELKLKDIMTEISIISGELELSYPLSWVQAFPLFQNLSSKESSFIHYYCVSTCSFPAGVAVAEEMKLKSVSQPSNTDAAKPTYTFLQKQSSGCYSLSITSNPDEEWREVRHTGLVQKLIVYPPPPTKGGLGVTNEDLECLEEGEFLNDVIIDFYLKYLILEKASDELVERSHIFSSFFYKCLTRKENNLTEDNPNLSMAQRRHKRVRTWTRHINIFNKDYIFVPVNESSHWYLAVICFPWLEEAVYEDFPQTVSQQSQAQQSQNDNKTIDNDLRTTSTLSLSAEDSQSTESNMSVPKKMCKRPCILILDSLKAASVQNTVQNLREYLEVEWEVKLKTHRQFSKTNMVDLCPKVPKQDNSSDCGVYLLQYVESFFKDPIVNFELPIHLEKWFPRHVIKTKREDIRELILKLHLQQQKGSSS

[8] = test system: H4; experiment: Luminescence Cell-Based Dose Response HTS to Identify Activators of 5'UTR Stem-Loop Driven Prion Protein mRNA Translation in H4 Neuroglioblastoma Cells. [Related pubchem assays: 1829 (Project Summary), 1814 (Primary HTS)]; type: functional; details: Homo sapiens
[9] = target: T5, Estrogen receptor (Homo sapiens, UniProt P03372);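 also: potency for inhibiting coactivator peptide recruitment to the receptor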
T5 sequence (P03372 whole entry): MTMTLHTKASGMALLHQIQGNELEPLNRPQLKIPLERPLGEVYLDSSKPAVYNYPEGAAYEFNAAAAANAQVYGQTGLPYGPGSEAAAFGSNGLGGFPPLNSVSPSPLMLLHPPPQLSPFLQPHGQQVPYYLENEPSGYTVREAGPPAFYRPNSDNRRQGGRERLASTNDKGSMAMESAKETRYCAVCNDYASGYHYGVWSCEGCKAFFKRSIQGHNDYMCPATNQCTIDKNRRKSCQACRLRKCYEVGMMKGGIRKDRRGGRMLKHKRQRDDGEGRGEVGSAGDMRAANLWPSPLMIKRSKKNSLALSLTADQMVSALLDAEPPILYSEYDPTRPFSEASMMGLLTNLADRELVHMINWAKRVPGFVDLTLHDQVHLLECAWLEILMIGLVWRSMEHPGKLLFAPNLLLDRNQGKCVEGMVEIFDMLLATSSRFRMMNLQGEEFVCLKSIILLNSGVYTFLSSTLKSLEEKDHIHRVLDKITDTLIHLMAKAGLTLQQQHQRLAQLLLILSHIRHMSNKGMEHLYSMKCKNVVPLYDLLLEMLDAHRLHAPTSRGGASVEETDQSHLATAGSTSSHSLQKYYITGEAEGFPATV

[10] = A Cell Based Secondary Assay To Explore Cytotoxicity of Compounds that Sensitize Mycobacterium Tuberculosis to Beta-Lactam Antibiotics.; type: functional
[11] = HEp-2 cell cytotoxicity, dose response, cytotoxicity control for RSV inhibitor project, HTS (AID 2410); type: functional; details: human respiratory syncytial virus
[12] = growth suppression of beta-catenin-knockout colon cells, dose response, cell-based, HCT116, human colon tumor (AID 1045); type: functional;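 also: HCT116 colon tumor cells with beta catenin knocked out; cells exposed to compound for 60 hours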
[13] = growth suppression of PTEN-null colon cells, dose response, cell-based, HCT116 PTEN knockout (AID 1047); type: functional;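 also: HCT116 colon tumor cells with PTEN knocked out; cells exposed to compound for 60 hours before readout; potency for loss of cell viability measured by luminescence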

Sequence of Estrogen receptor beta (Q92731 whole entry): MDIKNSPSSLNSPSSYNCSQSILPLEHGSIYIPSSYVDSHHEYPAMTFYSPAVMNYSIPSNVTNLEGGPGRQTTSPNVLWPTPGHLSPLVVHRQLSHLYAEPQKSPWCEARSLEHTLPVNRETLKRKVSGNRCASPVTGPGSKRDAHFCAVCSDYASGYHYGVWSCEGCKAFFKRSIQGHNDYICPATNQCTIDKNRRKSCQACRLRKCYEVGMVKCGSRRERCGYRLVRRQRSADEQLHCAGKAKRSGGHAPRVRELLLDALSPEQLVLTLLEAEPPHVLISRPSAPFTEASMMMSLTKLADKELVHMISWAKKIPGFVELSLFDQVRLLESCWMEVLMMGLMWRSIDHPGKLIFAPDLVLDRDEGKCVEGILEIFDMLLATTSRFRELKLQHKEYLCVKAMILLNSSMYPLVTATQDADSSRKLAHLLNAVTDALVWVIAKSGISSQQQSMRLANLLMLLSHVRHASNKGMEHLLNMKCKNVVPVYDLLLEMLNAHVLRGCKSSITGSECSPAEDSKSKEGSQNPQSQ

For `CC(C)CSc1nc2c(c(=O)[nH]c(=O)n2C)n1CC(O)COc1cccc2ccccc12` (centres undefined), the IC50 [1] was > 50 µM (not active).
For `c1ccc(-c2nc(C3CCCCC3)no2)cc1`, the EC50 [2] was 0.896 µM (active), the IC50 [3] was 57.1 µM (active) and the IC50 [1] was > 50 µM (not active). For the same compound, the EC50 [4] was 32.8 µM (active), the IC50 [5] was > 100 µM (inactive) and the IC50 [6] was 66.3 µM (active). For the same compound, the IC50 [7] was 23.2 µM (active) and the EC50 [8] was > 120 µM (not active).
With `COC(=O)c1ccc2c(c1)N(Cc1nc(-c3cccc(C)c3)oc1C)C(=O)C1CCCN21` (centres undefined) the IC50 [9] was > 50 µM (not active).
With `CC(=O)N(C(C)=O)c1c(C#N)c(C)n(-c2ccccc2)c1C(=O)c1ccccc1` the IC50 [9] was > 50 µM (not active).
In the case of `Cc1cc(C)n2nc(SCc3cc(=O)oc4cc(O)ccc34)nc2n1`, the IC50 [9] is reported as 10.1 µM (active).
For `Cc1nc2sc3c(c2c2nnc(SCC(=O)NCc4ccco4)n12)CCCC3`, the CC50 [10] was 31.8 µM (active).
For `CCC(C)NCCOCCOc1ccc(Cl)c2ccccc12` (centres undefined), the CC50 [10] was 18.4 µM (active).
For `COC(=O)C1=C(C)NC(=O)/C1=C\c1cc(C)n(-c2c(C)cccc2C)c1C`, the CC50 [10] was > 40 µM (active) and the CC50 [11] was 1.88 µM (active).
For `Cc1ccsc1/C=N/Nc1ncc(Cl)cc1Cl`, the EC50 [12] was 15.5 µM (active), the CC50 [10] was 32.4 µM (active) and the EC50 [13] was 12.9 µM (active).
